Among the data in ChEMBL document CHEMBL5331071, “Structure-activity relationship study of amidobenzimidazole derivatives as stimulator of interferon genes (STING) agonists” (Eur J Med Chem, 2023) are IC50 and EC50 values, retold here.

A short description of assay [1]: Cytotoxicity against human THP1-Dual KO-STING cells assessed as inhibition of cell growth by MTS assay. The assay is classed as functional, cell-based. In general terms: Tetrazolium dyes change colour on reduction, which living cells bring about.
Assay [2] deals with T1, Stimulator of interferon genes protein (Homo sapiens, UniProt Q86WV6). Description: Agonist activity at STING in human THP1-Dual cells incubated for 20 hrs by Quanti-luc reagent based assay. The assay is classed as cell-based.
T1 sequence (Q86WV6 whole entry): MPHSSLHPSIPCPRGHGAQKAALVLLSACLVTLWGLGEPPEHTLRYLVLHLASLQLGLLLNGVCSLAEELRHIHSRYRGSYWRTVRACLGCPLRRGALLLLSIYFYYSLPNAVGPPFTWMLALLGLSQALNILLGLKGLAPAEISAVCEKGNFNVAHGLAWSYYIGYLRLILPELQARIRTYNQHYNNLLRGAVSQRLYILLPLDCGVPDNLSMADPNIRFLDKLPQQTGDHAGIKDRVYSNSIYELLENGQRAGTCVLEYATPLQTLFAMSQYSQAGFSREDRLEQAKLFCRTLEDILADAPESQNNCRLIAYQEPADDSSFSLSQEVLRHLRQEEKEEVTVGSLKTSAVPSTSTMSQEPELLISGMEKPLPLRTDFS
In assay [3] the target is T1, Stimulator of interferon genes protein. Put plainly: Agonist activity at STING in human […] KO-STING cells incubated for 20 hrs by Quanti-luc reagent based assay. The assay is classed as cell-based, THP1-Dual KO-STING.
A further assay deals with THP1-Dual. Description: Cytotoxicity against human THP1-Dual habouring STING assessed as inhibition of cell growth by MTS assay. It is filed as functional, cell-based.

Regarding `CCn1nc(C)cc1C(=O)Nc1nc2cc(C(N)=O)cc(OC)c2n1C/C=C/CNC(=O)c1ccccc1`, the IC50 (in assay [1]; in the assay on THP1-Dual) was more than 100 µM each time. For the same compound, the EC50 in assay [2] was 47.1 µM; in assay [3], more than 100 µM.

`CCn1nc(C)cc1C(=O)Nc1nc2cc(C(N)=O)cc(OC)c2n1Cc1cn(CCc2ccccc2)nn1`: the IC50 (in assay [1]; with THP1-Dual) was more than 100 µM throughout. In addition, the EC50 in assay [2] and in assay [3] was more than 100 µM each time.

Take `CCn1nc(C)cc1C(=O)Nc1nc2cc(C(N)=O)cc(OC)c2n1NCCCC(=O)NCc1ccc(Cl)cc1Br`: the IC50 (in assay [1]; in the assay with THP1-Dual) was more than 100 µM throughout. The EC50 in assay [2] was 96.3 µM; in assay [3] it was more than 100 µM.

For the compound `CCn1nc(C)cc1C(=O)Nc1nc2cc(C(N)=O)cc(OC)c2n1CCOCCNC(=O)c1ccc(OC)cc1`, the half-maximal inhibitory concentration (IC50) (in assay [1]; with THP1-Dual) was more than 100 µM throughout. For the same compound, the EC50 in assay [2] and in assay [3] was more than 100 µM in each case.

As to `CCn1nc(C)cc1C(=O)Nc1nc2cc(C(N)=O)cc(OC)c2n1NCCCC(=O)NCc1ccc(Br)cc1F`, the IC50 (in assay [1]; in the assay on THP1-Dual) was more than 100 µM in each case. Besides, the EC50 is 5.28 µM in assay [2] and more than 100 µM in assay [3].

With `CCn1nc(C)cc1C(=O)Nc1nc2cc(C(N)=O)cc(OCC3COC3)c2n1NCCCC(=O)NCc1ccc(F)cc1`, the IC50 (in assay [1]; with THP1-Dual) was more than 100 µM throughout. The values for the EC50 in assay [2] and in assay [3] were 7.13 µM and more than 100 µM, respectively.

On to `CCn1nc(C)cc1C(=O)Nc1nc2cc(C(N)=O)cc(OC)c2n1NCCCC(=O)NCc1ccc(Oc2ccccc2)cc1`, for which the IC50 (in assay [1]; in the assay with THP1-Dual) was more than 100 µM in each case. For the same compound, the results for the EC50 in assay [2] and in assay [3] were 28.8 µM and more than 100 µM, respectively.

As for `CCn1nc(C)cc1C(=O)Nc1nc2cc(C(N)=O)cc(OC)c2n1CCCN1CCC(C(=O)Nc2ccc3ccccc3c2)CC1`, the IC50 (in assay [1]; with THP1-Dual) was more than 100 µM throughout. Besides, the EC50 in assay [2] and in assay [3] was more than 100 µM throughout.

Turning to `CCn1nc(C)cc1C(=O)Nc1nc2cc(C(N)=O)cc(OC)c2n1C/C=C/CNC(=O)c1ccc2ncccc2c1`, the IC50 (in assay [1]; in the assay on THP1-Dual) was more than 100 µM in each case. For the same compound, the EC50 in assay [2] and in assay [3] was more than 100 µM each time.

Regarding `CCn1nc(C)cc1C(=O)Nc1nc2cc(C(N)=O)cc(OC)c2n1C/C=C/CNC(=O)Nc1ccc2ccccc2c1`, the IC50 (in assay [1]; in the assay with THP1-Dual) was more than 100 µM each time. In addition, the half-maximal effective concentration (EC50) in assay [2] and in assay [3] was more than 100 µM each time.

As to `CCn1nc(C)cc1C(=O)Nc1nc2cc(C(N)=O)cc(OC)c2n1C/C=C/CNC(=O)c1ccc(Cl)cc1`, the IC50 (in assay [1]; with THP1-Dual) was more than 100 µM each time. Further, the EC50 in assay [2] and in assay [3] was more than 100 µM throughout.

Consider `CCn1nc(C)cc1C(=O)Nc1nc2cc(C(N)=O)cc(OC)c2n1NCCCC(=O)NCc1ccccc1F`, for which the IC50 (in assay [1]; in the assay with THP1-Dual) was more than 100 µM throughout. The EC50 in assay [2] was 4.17 µM; in assay [3], more than 100 µM.

Turning to `CCn1nc(C)cc1C(=O)Nc1nc2cc(C(N)=O)cc(OC)c2n1C/C=C/CNC(=O)c1ccc(C(F)(F)F)cc1`, the IC50 (in assay [1]; in the assay with THP1-Dual) was more than 100 µM throughout. Further, the EC50 in assay [2] and in assay [3] was more than 100 µM each time.

For the compound `CCn1nc(C)cc1C(=O)Nc1nc2cc(C(N)=O)cc(OC)c2n1C/C=C/CNC(=O)C1CCCC1`, the IC50 (in assay [1]; with THP1-Dual) was more than 100 µM throughout. Besides, the EC50 in assay [2] and in assay [3] was more than 100 µM in each case.

For `CCn1nc(C)cc1C(=O)Nc1nc2cc(C(N)=O)cc(OC)c2n1NCCCNC(=O)NCc1ccccc1`, the IC50 (in assay [1]; in the assay with THP1-Dual) was more than 100 µM in each case. The EC50 is 8.52 µM in assay [2] and more than 100 µM in assay [3].

As to `CCn1nc(C)cc1C(=O)Nc1nc2cc(C(N)=O)cc(OC)c2n1CCCC(=O)NCc1ccccc1`, the IC50 (in assay [1]; in the assay with THP1-Dual) was more than 100 µM throughout. The values for the EC50 in assay [2] and in assay [3] were 4.13 µM and more than 100 µM, respectively.

Turning to `CCn1nc(C)cc1C(=O)Nc1nc2cc(C(N)=O)cc(OC)c2n1C/C=C/CNC(=O)NCc1ccccc1`, the IC50 (in assay [1]; in the assay with THP1-Dual) was more than 100 µM throughout. Moreover, the EC50 in assay [2] and in assay [3] was more than 100 µM throughout.

On to `CCn1nc(C)cc1C(=O)Nc1nc2cc(C(N)=O)cc(OCC3CC3)c2n1NCCCC(=O)NCc1ccc(F)cc1`, for which the IC50 (in assay [1]; in the assay with THP1-Dual) was more than 100 µM in each case. Further, the EC50 in assay [2] was 1.42 µM; in assay [3] it was more than 100 µM.

With `CCn1nc(C)cc1C(=O)Nc1nc2cc(C(N)=O)cc(OC)c2n1NCCCC(=O)N(C)Cc1ccccc1`, the IC50 (in assay [1]; in the assay on THP1-Dual) was more than 100 µM throughout. Also, the concentration for a half-maximal effect (EC50) in assay [2] was 11.2 µM; in assay [3], more than 100 µM.

Turning to `CCn1nc(C)cc1C(=O)Nc1nc2cc(C(N)=O)cc(OC)c2n1CCCN1CCC(C(=O)Nc2ccccc2)CC1`, the IC50 (in assay [1]; with THP1-Dual) was more than 100 µM in each case. Further, the EC50 in assay [2] and in assay [3] was more than 100 µM in each case.

Take `CCn1nc(C)cc1C(=O)Nc1nc2cc(C(N)=O)cc(OC)c2n1C/C=C/Cn1c(=O)[nH]c2cc(C(N)=O)ccc21`: the IC50 (in assay [1]; in the assay with THP1-Dual) was more than 100 µM throughout. In addition, the EC50 in assay [2] and in assay [3] was more than 100 µM each time.

For `CCn1nc(C)cc1C(=O)Nc1nc2cc(C(N)=O)cc(OC)c2n1C/C=C/CNc1ccc(C(N)=O)cc1[N+](=O)[O-]`, the IC50 (in assay [1]; in the assay on THP1-Dual) was more than 100 µM each time. The EC50 in assay [2] and in assay [3] was more than 100 µM each time.

Turning to `CCn1nc(C)cc1C(=O)Nc1nc2cc(C(N)=O)cc(OC)c2n1CCCNC(=O)c1ccc(-c2ccccc2)cc1`, the IC50 (in assay [1]; with THP1-Dual) was more than 100 µM throughout. Also, the EC50 in assay [2] and in assay [3] was more than 100 µM in each case.

In the case of `CCn1nc(C)cc1C(=O)Nc1nc2cc(C(N)=O)cc(OC)c2n1NCCCC(=O)NCc1ccc(F)cc1F`, the IC50 (in assay [1]; in the assay with THP1-Dual) was more than 100 µM in each case. For the same compound, the values for the EC50 in assay [2] and in assay [3] were 3.57 µM and more than 100 µM, respectively.

Regarding `CCn1nc(C)cc1C(=O)Nc1nc2cc(C(N)=O)cc(OC)c2n1C/C=C/CNC(=O)c1cc(C(F)(F)F)cc(C(F)(F)F)c1`, the IC50 (in assay [1]; in the assay on THP1-Dual) was more than 100 µM throughout. The EC50 in assay [2] and in assay [3] was more than 100 µM in each case.

In the case of `CCn1nc(C)cc1C(=O)Nc1nc2cc(C(N)=O)cc(OC)c2n1NCCCC(=O)NCc1ccc(-c2ccccc2)cc1`, the IC50 (in assay [1]; in the assay with THP1-Dual) was more than 100 µM throughout. Also, the 50% effective concentration (EC50) in assay [2] was 40.9 µM; in assay [3], more than 100 µM.

Consider `CCn1nc(C)cc1C(=O)Nc1nc2cc(C(N)=O)cc(OC)c2n1NCCCNC(=O)NCc1ccc2ccccc2c1`, for which the IC50 (in assay [1]; in the assay on THP1-Dual) was more than 100 µM throughout. The EC50 in assay [2] and in assay [3] was more than 100 µM in each case.

For `CCn1nc(C)cc1C(=O)Nc1nc2cc(C(N)=O)cc(OC)c2n1CCCN1CCN(C(=O)c2ccc3ccccc3c2)CC1`, the IC50 (in assay [1]; in the assay on THP1-Dual) was more than 100 µM each time. Further, the EC50 in assay [2] and in assay [3] was more than 100 µM each time.

On to `CCn1nc(C)cc1C(=O)Nc1nc2cc(C(N)=O)cc(OC)c2n1C/C=C/CNc1ncc(C(N)=O)cn1`, for which the IC50 (in assay [1]; with THP1-Dual) was more than 100 µM each time. Moreover, the EC50 in assay [2] and in assay [3] was more than 100 µM each time.

As for `CCn1nc(C)cc1C(=O)Nc1nc2cc(C(N)=O)cc(OC)c2n1C/C=C/CNC(=O)c1ccc(F)cc1`, the IC50 (in assay [1]; in the assay on THP1-Dual) was more than 100 µM in each case. Besides, the EC50 in assay [2] and in assay [3] was more than 100 µM each time.

Turning to `CCn1nc(C)cc1C(=O)Nc1nc2cc(C(N)=O)cc(OC)c2n1CCCNC(=O)c1ccccc1`, the IC50 (in assay [1]; with THP1-Dual) was more than 100 µM throughout. Further, the EC50 in assay [2] and in assay [3] was more than 100 µM in each case.

Take `CCn1nc(C)cc1C(=O)Nc1nc2cc(C(N)=O)cc(OC)c2n1CCCNC(=O)c1ccc2ccccc2c1`: the IC50 in assay [1] was more than 100 µM; in the assay with THP1-Dual it was 10.8 µM. In addition, the EC50 in assay [2] was 0.93 µM; in assay [3] it was more than 100 µM.

Turning to `CCn1nc(C)cc1C(=O)Nc1nc2cc(C(N)=O)cc(OC)c2n1C/C=C/CNC(=O)c1cnc(OC)cn1`, the IC50 (in assay [1]; with THP1-Dual) was more than 100 µM in each case. In addition, the EC50 in assay [2] and in assay [3] was more than 100 µM throughout.

On to `CCn1nc(C)cc1C(=O)Nc1nc2cc(C(N)=O)cc(OC)c2n1C/C=C/CNC(=O)C1CCCCC1`, for which the IC50 (in assay [1]; with THP1-Dual) was more than 100 µM in each case. Moreover, the EC50 in assay [2] and in assay [3] was more than 100 µM each time.

For `CCn1nc(C)cc1C(=O)Nc1nc2cc(C(N)=O)cc(OCC3CC3)c2n1NCCCNC(=O)c1ccc2ccccc2c1`, the IC50 was 12.1 µM in assay [1] and more than 100 µM in the assay on THP1-Dual. Besides, the concentration for a half-maximal effect (EC50) is 1.12 µM in assay [2] and more than 100 µM in assay [3].

For `CCn1nc(C)cc1C(=O)Nc1nc2cc(C(N)=O)cc(OC)c2n1C/C=C/CNC1CCN(C)CC1`, the IC50 (in assay [1]; with THP1-Dual) was more than 100 µM in each case. In addition, the EC50 in assay [2] and in assay [3] was more than 100 µM in each case.

Take `CCn1nc(C)cc1C(=O)Nc1nc2cc(C(N)=O)cc(OC)c2n1CCCN1CCC(NC(=O)c2ccc3ccccc3c2)CC1`: the IC50 (in assay [1]; with THP1-Dual) was more than 100 µM each time. Also, the EC50 in assay [2] and in assay [3] was more than 100 µM in each case.

As for `CCn1nc(C)cc1C(=O)Nc1nc2cc(C(N)=O)cc(OC)c2n1NCCCC(=O)NCc1ccc(OC)cc1`, the IC50 (in assay [1]; in the assay with THP1-Dual) was more than 100 µM throughout. Further, the values for the EC50 in assay [2] and in assay [3] were 4.1 µM and more than 100 µM, respectively.

`CCn1nc(C)cc1C(=O)Nc1nc2cc(C(N)=O)cc(OC)c2n1NCCCC(=O)NCc1ccc(Cl)cc1C(F)(F)F`: the IC50 (in assay [1]; in the assay on THP1-Dual) was more than 100 µM in each case. In addition, the concentration giving a half-maximal response (EC50) in assay [2] and in assay [3] was more than 100 µM throughout.

Broadly, the IC50 is the concentration that gives 50% inhibition. Broadly, the EC50 is the concentration that produces a half-maximal response.
